# Measurements reported in patent US20230277549A1, “NOTCH SIGNALING INHIBITORS FOR TREATING OBESITY AND METABOLIC DISORDERS” (Purdue Research Foundation, priority 2020, published 2023).
# “Also recorded” adds a separate entry of the source.
# Legend:
# [1] = test system: Notch signaling (target gene Hes1); assay: Notch inhibition: Hes1 mRNA by real-time qPCR in 3T3-L1 preadipocytes; assay type: cell-based; conditions: for mRNA expression of Hes1: 3T3-L1 preadipocytes, 1 μM, 12 h, real-time qPCR; for dose dependence of the inhibitory effect on Hes1 expression: 0.5, 1 and 10 μM
# Procedure: (§1) Cell culture and drug treatment. 3T3-L1 preadipocytes were cultured in Dulbecco's modified Eagle medium (DMEM) supplemented with 10% fetal bovine serum (FBS) and 1% antibiotics (penicillin and streptomycin) at 37° C., 5% CO2, and 95% relative humidity. The medium was routinely changed every two days and cells were separated by trypsin before reaching confluency. Beige adipocyte differentiation was induced by treating confluent preadipocytes with the adipogenic induction medium containing DMEM, 10% FBS, 0.5 mM isobutylmethylxanthine, 1 μM dexamethasone, 1.75 μM insulin, and 1 μM rosiglitazone. Three days after induction, medium was switched to the differentiation medium containing DMEM, 10% FBS, 850 nM insulin, and 10 nM triiodothyronine until adipocytes matured. For the drug treatment, a series of GSIs were added to the cells in culture medium at the same final drug concentrations of 0.5, 1, and 10 μM, respectively, and cells were induced for differentiation.
# (§2) RNA extraction, cDNA synthesis, and real-time qPCR. Total RNA was extracted from cells using TRIzol (Thermo Fisher Scientific, Waltham, Mass., USA) in accordance with the manufacturer's protocol. RNA was treated with RNase-free DNase I to remove contaminating genomic DNA and the purity as well as concentration of extracted RNA were determined by a spectrophotometer NanoDrop 2000c (Thermo Fisher Scientific, Waltham, Mass., USA). Subsequently, 2 μg of RNA was reverse transcribed to cDNA using random hexamer primers with M-MLV reverse transcriptase (Invitrogen, Carlsbad, Calif., USA). Real-time qPCR was performed in the Roche Light Cycler 480 PCR system (Roche, Basel, Switzerland) with SYBR Green master mix.
# (§3) The 2^−ΔΔCT method was used to analyze the relative changes of gene expression after normalization to the expression of β-Actin.
# To determine the impact of GSIs on inhibition of Notch signaling, 3T3-L1 preadipocytes were treated with a series of GSIs (see Table 1) at a concentration of 1 μM and the change in mRNA expression of Hes1, a Notch downstream transcriptional target gene, was evaluated using real-time qPCR.
# To further examine the relationship between drug concentration and inhibitory effect of GSIs, cells were treated with the four most promising inhibitors (i.e., RO4929097, PF-03084014, LY3039478, and BMS-906024) at three gradient concentrations (0.5, 1, and 10 μM).
# Effect of RO4929097-PLGA NPs on the Notch signaling target gene. 3T3-L1 preadipocytes were treated with DMSO, PLGA NPs (0.1 mg/mL), DBZ (10 μM), RO4929097 (1 μM) or RO4929097-PLGA NPs (0.1 mg/ml) for 12 h at 37° C. in a 5% CO2 incubator. The Notch target Hes1 mRNA expression was analyzed by qRT-PCR (FIG. 8). Each bar is the mean±SEM of 4 to 5 replicates in each group and the data were analyzed by one-way ANOVA followed by Tukey's post hoc comparison test. Asterisks refer to statistical difference between the indicated treatment groups (*p<0.05, **p<0.01, and ***p<0.001).
# [2] = test system: UCP1 in differentiated 3T3-L1 cells; assay: UCP1 immunofluorescence staining; assay type: cell-based; conditions: 1 μM
# Procedure: Immunofluorescence staining. After washing with phosphate-buffered saline (PBS), cells were fixed with 4% PFA, quenched with glycine (100 mM glycine and 0.1% sodium azide in PBS), and blocked with PBS containing 2% BSA, 5% goat serum, and 0.2% Triton X-100 for 1 h at room temperature. Subsequently, cells were incubated with the UCP1 antibody diluted at 1:500 in the same blocking buffer overnight at 4° C. and the Alexa Fluor® 488 conjugated goat anti-rabbit IgG (1:1000 dilution) for 1 h at room temperature. Nuclei were counterstained with 4′,6-diamidino-2-phenylindole (DAPI, 1 μg/mL), which was premixed with the secondary antibody.
# [3] = test system: differentiated 3T3-L1 cells; assay: mRNA expression of adipogenic, mitochondrial and browning marker genes by real-time qPCR; assay type: cell-based; conditions: for increase of mRNA expression of Tmem26: 0.5, 1 and 10 μM, highest dose significant versus control
# Procedure: as §1, §2, §3
# [4] = test system: UCP1, PPARγ, and C/EBPα in differentiated 3T3-L1 cells; assay: Western blot of UCP1, PPARγ and C/EBPα protein; assay type: cell-based; conditions: for protein expression of UCP1 / decrease of the upregulated UCP1 protein expression: western blot; for decrease of the upregulated UCP1 protein expression: increasing the concentration from 1 to 10 μM
# Procedure: as §1
# Protein extraction and western blotting. Total protein was extracted from cells using RIPA buffer containing 25 mM Tris-HCl (pH 8.0), 150 mM NaCl, 1 mM EDTA, 0.5% NP-40, 0.5% sodium deoxycholate and 0.1% SDS. Protein concentrations were determined by Pierce BCA Protein Assay Reagent (Pierce Biotechnology, Waltham, Mass., USA). Proteins were separated by SDS-PAGE and transferred to a polyvinylidene fluoride membrane (Millipore, Burlington, Mass., USA). The membrane was then blocked with 5% fat-free milk for 1 h at room temperature and incubated with primary antibodies in 5% milk overnight at 4° C. as well as secondary antibodies for 1 h at room temperature. Primary antibodies, including UCP1 (1:1000 dilution), C/EBPα (1:500 dilution), PPARγ (1:500 dilution), and β-Actin (1:5000 dilution), were used. HRP-conjugated secondary antibodies, including anti-rabbit and anti-mouse IgG, were also used at a dilution of 1:10,000. A luminol reagent for enhanced chemiluminescence detection of western blots (Santa Cruz Biotechnology, Dallas, Tex., USA) was employed and signals were detected with a FluorChem R imaging system (ProteinSimple, San Jose, Calif., USA).
# The protein expression of adipogenic markers, such as PPARγ and C/EBPα, was also evaluated.
# 3T3-L1 preadipocytes = assay: Cell viability, MTS assay; conditions: 0.5, 1 and 10 μM, 12 h
# Procedure: Assessment of cell viability. In vitro cell viability after incubation with various GSIs at three concentrations was determined using an MTS assay, which is based on the mitochondrial conversion of a tetrazolium salt. 3T3-L1 preadipocytes were seeded onto 96-well plates at a density of 1×10^4 cells per well and cultured in 5% CO2 at 37° C. for 48 h. GSIs were then added to the cells in culture medium at the same final drug concentrations of 0.5, 1, and 10 μM, respectively, and cells were further incubated at 37° C. for 12 h. Subsequently, 20 μL of CellTiter 96® AQueous one solution reagent was added to each well in 100 μL of culture medium and incubated at 37° C. in a humidified, 5% CO2 atmosphere for 2 h. The absorbance was measured using a Tecan Spark™ 10M microplate reader (Tecan, Mannedorf, Switzerland) at a wavelength of 490 nm with background subtraction at 680 nm. Cells incubated with 0.1% Triton X-100 and dimethyl sulfoxide (DMSO) in culture medium served as positive and negative controls, respectively.
# Effects of GSIs on cell viability. To investigate effects of GSIs on cell viability, 3T3-L1 preadipocytes were treated with GSIs at three gradient concentrations (0.5, 1, and 10 μM) for 12 h.
# [5] = test system: Notch (Hes1) in human tumor-derived cells; conditions: cited from earlier work
# [6] = all the concentrations (0.5, 1, 10 μM)
SMILES,mRNA expression of Hes1 [1],increase of mRNA expression of Tmem26 [3],protein expression of UCP1 ([4]; 1 μM),dose dependence of the inhibitory effect on Hes1 expression [1],cell viability / cytotoxicity (3T3-L1 preadipocytes),other results
NC(=O)[C@@H](CCC(F)(F)F)N(Cc1ccc(-c2ncon2)cc1F)S(=O)(=O)c1ccc(Cl)cc1 [BMS-708163],did not significantly decrease; also recorded: relatively moderate inhibitory effect,–,–,–,–,–
CN1C(=O)[C@@H](NC(=O)[C@H](CCC(F)(F)F)[C@H](CCC(F)(F)F)C(N)=O)N=C(c2ccccc2)c2ccccc21 [BMS-906024],significantly inhibited,in a dose-dependent manner,minimal impact,more significant with increasing the drug concentration,–,UCP1 positive adipocytes (UCP1 expression) [2]: minimal efficiency; protein expression of C/EBPα ([4]; 1 μM): significantly upregulated
CC(C)[C@H](O)C(=O)N[C@@H](C)C(=O)N[C@@H]1C(=O)N(C)CCc2ccccc21 [LY450139],did not significantly decrease,–,–,–,–,–
C[C@H](NC(=O)CCC(F)(F)F)C(=O)N[C@@H]1C(=O)N(CCO)c2ncccc2-c2ccccc21 [LY3039478],significantly inhibited,in a dose-dependent manner,significant upregulation,more significant with increasing the drug concentration,did not result in any significant cytotoxicity,"mRNA expression of Cox5B ([3]; 10 μM): Significant upregulation; mRNA expression of Ppargc1α ([3]; 10 μM): significant changes; protein expression of C/EBPα [4, 6]: significantly upregulated; protein expression of UCP1 ([4]; high concentration of 10 μM): did not significantly change"
O=C(O)CC[C@H]1CC[C@@](c2cc(F)ccc2F)(S(=O)(=O)c2ccc(Cl)cc2)CC1 [MK-0752],did not significantly decrease; also recorded: relatively moderate inhibitory effect,–,–,–,–,–
CCC[C@H](N[C@H]1CCc2cc(F)cc(F)c2C1)C(=O)Nc1cn(C(C)(C)CNCC(C)(C)C)cn1 [PF-03084014],significantly inhibited,in a dose-dependent manner,significantly upregulated,more significant with increasing the drug concentration,decreased with increasing the drug concentration,mRNA expression of Cox5B ([3]; 1 μM): Significant upregulation; mRNA expression of Ppargc1α ([3]; 10 μM): significant changes; decrease of the upregulated UCP1 protein expression [4]: around 50%
CC(C)(C(=O)NCC(F)(F)C(F)(F)F)C(=O)N[C@@H]1C(=O)Nc2ccccc2-c2ccccc21 [RO4929097],significantly inhibited,–,significantly upregulated,did not result in a dose-dependent depression,decreased with increasing the drug concentration,"mRNA expression of Cox5B [3, 6]: increased; protein expression of C/EBPα [4, 6]: significantly upregulated; decrease of the upregulated UCP1 protein expression [4]: around 50%; concentration above which no further reduction in mRNA level of Hes1 [5]: > 1 µM; concentration above which no further reduction in protein level of Hes1 [5]: higher than 0.5 μM; concentration at which dose-dependent inhibition of Notch begins [5]: ≥ 0.1 µM"
